{"source": "patent US20020132845A1", "about": "“Compositions and methods for the prevention and treatment of tissue ischemia” (priority 2000, published 2002)", "test_system": "primary neonate myocytes (cardiomyocytes)", "experiment": "Isolated heart cell (myocyte) preparation model of myocardial cell ischemia (Example 4)", "format": "cell-based, rat", "conditions": "37-111 micromolar", "text": "Two-day old rat pups are removed from their mothers and placed in a sterile container. Pups are dipped quickly into 70% alcohol, then decapitated and the body is placed in an empty sterile tissue culture dish. An incision is made starting at the neck and progressing towards the belly, cutting through the sternum. The heart is removed and placed in a tissue culture dishes containing 1×HDS. The atria are trimmed, and the remaining ventricles are placed into a separate tissue culture dish containing 1×HDS, where they are sectioned into 3-4 pieces each. Ventricles are then transferred to a sterile 250 ml glass flask and the 1×HDS is removed. Twenty milliliters of pre-warmed collagenase solution are added to the ventricles, followed by incubation at 37° C. with shaking. After 30 minutes, the collagenase solution is removed and replaced with 20 ml fresh pre-warmed collagenase. Incubation is continued for an additional 30 minutes. At the end of the incubation, any tissue chunks are allowed to settle prior to removing the collagenase (containing the isolated cardiomyocytes) from the disrupted tissue pieces. The isolated myocytes are added to a 50 ml Falcon tube containing 2 ml Fetal Bovine Serum (FBS). […]\nA small aliquot of the cell suspension is counted in a hemocytometer. […]"}
{"substance": "bromo-quercetin", "values": [{"measurement": "preventing or reducing myocardial damage", "result": "effective"}]}
